IC50 data for nine molecules are collected here from patent US9199967B2, “Substituted heterocyclic amine compounds as cholestryl ester-transfer protein (CETP) inhibitors” (Dr. Reddy's Laboratories Ltd., priority 2011, dated 2015).

As usually defined, the IC50 is the point on the concentration scale where inhibition reaches its midpoint.

The assay addresses T1, rCETP (Homo sapiens, UniProt P11597).
T1 sequence (P11597 18-493): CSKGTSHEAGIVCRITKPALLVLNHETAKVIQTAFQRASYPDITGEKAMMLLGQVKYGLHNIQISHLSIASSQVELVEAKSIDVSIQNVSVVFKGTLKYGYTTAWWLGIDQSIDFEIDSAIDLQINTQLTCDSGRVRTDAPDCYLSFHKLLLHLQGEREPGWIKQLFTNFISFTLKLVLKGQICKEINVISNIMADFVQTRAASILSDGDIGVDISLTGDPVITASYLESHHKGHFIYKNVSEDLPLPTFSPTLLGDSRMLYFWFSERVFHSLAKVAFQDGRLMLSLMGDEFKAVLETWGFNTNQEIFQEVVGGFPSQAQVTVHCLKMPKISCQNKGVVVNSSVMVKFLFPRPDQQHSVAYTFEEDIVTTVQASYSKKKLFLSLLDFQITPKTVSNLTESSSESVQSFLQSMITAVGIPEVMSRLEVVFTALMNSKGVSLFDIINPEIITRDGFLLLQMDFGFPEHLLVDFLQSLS
Nature of the assay: In vitro CETP inhibition assay, fluorometric kit (ROAR Biomedicals). The assay is classed as biochemical. The settings on record: rCETP 50 ng, 37° C., 90 minutes, fluorescence Ex 492 nm / Em 516 nm; read-out: IC50 (nM), inhibitory effect on CETP. The text has this: An in vitro cholesteryl ester transfer protein inhibition (CETP) assay using a commercially available fluorometric assay kit from ROAR Biomedicals, USA was used to measure the CETP inhibition activity of the compounds of this application. This assay kit uses a donor molecule containing a fluorescent self-quenched neutral lipid that is transferred to an acceptor molecule in the presence of CETP enzyme. The CETP-mediated transfer of the fluorescent neutral lipid to the acceptor molecule results in an increase in fluorescence (Excitation: 492 nm; Emission: 516 nm).
A 20 mM stock solution of compounds were prepared in 100% DMSO and further dilutions were made such that the final concentration of DMSO in the reaction mix was 1%. […] The assay was performed in 96 well microplates and in each well, the reaction mixture contained 190 μl of assay buffer (150 mM NaCl, 10 mM Tris and 2 mM EDTA, pH-7.4), 4 μl of donor particle, 4 IA of acceptor particle, rCETP (50 ng) and 2 μl of test compound at varying final concentration of 0.1, 1, 10, 100, 1000 & 10000 nM. Two control reactions were performed, one without test compound (positive control) and the other without the rCETP (negative control). The reactions were incubated at 37° C. for 90 minutes and the reaction plate was transferred to a PCR machine MX3005P and the fluorescence units (FLU) were quantified (Excitation: 492 nm; Emission: 516 nm).
The negative control values were subtracted from the positive control as well as all the test values to correct for background fluorescence. The percentage inhibition of activity is calculated by using the following equation: % Inhibition of CETP activity=[100−(100×(FLU in test/FLU in positive control))].
The half maximal inhibitory concentration (IC50) was determined using the BIOGRAPH software (version no. 3.3).
On to `CC1(C)CCc2cc(CN(Cc3cc(C(F)(F)F)cc(C(F)(F)F)c3)c3ncc(N4CCCC4=O)cn3)c(N(CC3CC3)CC3CC3)nc21` [Example 2, 1-(2-(((2-(bis(cyclopropylmethyl)amino)-7,7-dimethyl-6,7-dihydro-5H-cyclopenta[b]pyridin-3-yl)methyl)(3,5-bis(trifluoromethyl)benzyl)amino)pyrimidin-5-yl) pyrrolidin-2-one], for which the IC50 was roughly 29 nM.

Regarding `CC1(C)CCc2cc(CN(Cc3cc(C(F)(F)F)cc(C(F)(F)F)c3)c3ncc(N4CCOCC4)cn3)c(N(CC3CC3)CC3CC3)nc21` [Example 3, 3-(((3,5-bis(trifluoromethyl)benzyl)(5-morpholinopyrimidin-2-yl)amino)methyl)-N,N-bis(cyclopropylmethyl)-7,7-dimethyl-6,7-dihydro-5H-cyclopenta[b]pyridin-2-amine], the IC50 was roughly 20 nM. Then `CC(=O)c1cnc(N(Cc2cc(C(F)(F)F)cc(C(F)(F)F)c2)Cc2cc3c(nc2N(CC2CC2)CC2CC2)C(C)(C)CC3)nc1` [Example 4, 1-(2-(((2-(bis(cyclopropylmethyl)amino)-7,7-dimethyl-6,7-dihydro-5H-cyclopenta[b]pyridin-3-yl)methyl)(3,5-bis(trifluoromethyl)benzyl)amino)pyrimidin-5-yl)ethanone], with roughly 50 nM; and `CC1(C)CCc2cc(CN(Cc3cc(C(F)(F)F)cc(C(F)(F)F)c3)c3ncc(-c4cc[nH]n4)cn3)c(N(CC3CC3)CC3CC3)nc21` [Example 6, 3-(((5-(1H-pyrazol-3-yl)pyrimidin-2-yl)(3,5-bis(trifluoromethyl)benzyl)amino)methyl)-N,N-bis(cyclopropylmethyl)-7,7-dimethyl-6,7-dihydro-5H-cyclopenta[b]pyridin-2-amine], with roughly 29 nM; and `CC1(C)CCc2cc(CN(Cc3cc(C(F)(F)F)cc(C(F)(F)F)c3)c3ncc(-c4ccon4)cn3)c(N(CC3CC3)CC3CC3)nc21` [Example 7, 3-(((3,5-bis(trifluoromethyl)benzyl)(5-(isoxazol-3-yl)pyrimidin-2-yl)amino)methyl)-N,N-bis(cyclopropylmethyl)-7,7-dimethyl-6,7-dihydro-5H-cyclopenta[b]pyridin-2-amine], with roughly 33 nM. The same measure for `CC1(C)CCc2cc(CN(Cc3cc(C(F)(F)F)cc(C(F)(F)F)c3)c3ncc(C(N)=O)cn3)c(N(CC3CC3)CC3CC3)nc21` [Example 9, 2-(((2-(bis(cyclopropylmethyl)amino)-7,7-dimethyl-6,7-dihydro-5H-cyclopenta[b]pyridin-3-yl)methyl)(3,5-bis(trifluoromethyl)benzyl)amino) pyrimidine-5-carboxamide]: roughly 94 nM; for `CC1CCc2cc(CN(Cc3cc(C(F)(F)F)cc(C(F)(F)F)c3)c3ncc(N4CCOCC4)cn3)c(N(CC3CC3)CC3CC3)nc21` (stereo not drawn) [Example 10, 3-(((3,5-bis(trifluoromethyl)benzyl)(5-morpholinopyrimidin-2-yl)amino)methyl)-N,N-bis(cyclopropylmethyl)-7-methyl-6,7-dihydro-5H-cyclopenta[b]pyridin-2-amine]: roughly 90 nM. Regarding `CC1CCCc2cc(CN(Cc3cc(C(F)(F)F)cc(C(F)(F)F)c3)c3ncc(N4CCOCC4)cn3)c(N(CC3CC3)CC3CC3)nc21` (stereo not drawn) [Example 11, 3-(((3,5-bis(trifluoromethyl)benzyl)(5-morpholinopyrimidin-2-yl)amino)methyl)-N,N-bis(cyclopropylmethyl)-8-methyl-5,6,7,8-tetrahydroquinolin-2-amine], the IC50 was roughly 40 nM. Then `CC1(C)CCc2cc(CN(Cc3cc(C(F)(F)F)cc(C(F)(F)F)c3)c3ccc4[nH]c(=O)oc4c3)c(N(CC3CC3)CC3CC3)nc21` [Example 17, 6-(((2-(bis(cyclopropylmethyl)amino)-7,7-dimethyl-6,7-dihydro-5H-cyclopenta[b]pyridin-3-yl)methyl)(3,5-bis(trifluoromethyl)benzyl)amino)benzo[d]oxazol-2(3H)-one], with roughly 16 nM.
